Test results reported in a melting point compilation (Tetko et al.; mined from patent text by program, amines drawn as free bases though some values may be those of a salt).

Row | SMILES | melting point
1 | O=C(Nc1ccccc1F)c1c[nH]c2c1C(=O)CCC2 | 238 to 240 °C
2 | Cc1nc2ccccn2c(=O)c1CCN1CCN(C(=NNc2ccccc2)c2ccccc2F)CC1 | 180 °C
3 | NS(=O)(=O)c1ccc(N2CC(CO)OC2=O)cc1 (centres undefined) | 154 to 156 °C
4 | CCCCCCCCCCCCn1nnc(Nc2ccccc2)n1 | 58 to 61 °C
5 | O=C(CCCCCCOc1ccc(OCc2ccccc2)cc1)c1nnc(COCc2ccccc2)o1 | 95 to 97 °C
6 | COc1cc2c(cc1OC)C[C@@H](N1CCN(c3ccccc3OC)CC1)[C@H](O)C2 (relative stereo) | 172 to 174 °C
7 | CC(C)CCCC(C)C1CCC2C3CC4(OCCO4)C4CCCC(O)C4(C)C3CCC12C (centres undefined) | 96 to 98 °C
8 | OC1CSC(Oc2ccc(-c3cncnc3)cc2)C(O)C1O (centres undefined) | 196 to 200 °C
9 | Cc1nn(C)c(/C(OC(=O)C(C)(C)C)=C(\C#N)c2ccc(C(C)(C)C)cc2)c1C | 110 °C
10 | ClCCCOc1ccc(-n2ccnc2)cc1 | 53 to 55 °C
11 | OC(Cn1ccnc1)c1cccnc1 (centres undefined) | 119 to 121 °C
12 | CC[C@@](O)(CC(=O)N1C(=O)O[C@@H](c2ccccc2)[C@H]1c1ccccc1)c1ccnc(OC)c1COCc1ccccc1 | 61 °C
13 | N#Cc1c(SC(F)(F)F)c(N)n(-c2ccc(C(F)(F)F)cc2)c1Br | 152 °C
14 | CCCCn1c(=O)[nH]c2cc(Cl)cc(Cl)c2c1=O | 198 to 201 °C
15 | N#Cc1cc2c(c(N3CCN(CCCCN4C(=O)c5ccccc5S4(=O)=O)CC3)c1)OCCO2 | 162 to 164 °C
16 | CSCc1c(N)c(Br)cc(F)c1F | 60 to 61 °C
17 | N=C(NN=Cc1ccc(OC(F)C(F)(F)F)cc1)NN=Cc1ccc(OC(F)C(F)(F)F)cc1 (centres undefined) | 125 to 130 °C
18 | NC(=O)COc1ncc(Cl)c(N)c1Cl | 192 to 193 °C
19 | CCC(=O)NC(=S)NCC1CC2c3cccc4[nH]cc(c34)CC2N(C)C1 (centres undefined) | 225 to 226 °C
20 | Cc1ccc(P2(=O)c3ccccc3CN2c2ccccc2)cc1 (centres undefined) | 180 to 181 °C
21 | O=C(c1cc(C(F)(F)F)cc(C(F)(F)F)c1)N1CCC2(CC1)C(=O)N(c1cc(Cl)ncn1)CN2c1ccccc1 | 212 to 214 °C
22 | NC(=O)C1CCN(c2c(Br)cncc2Br)CC1 | 158 to 160 °C

Row | SMILES | melting point
23 | COc1ccc(C2=CCN(Cc3n[nH]c4c(F)cccc34)CC2)cc1 | 183 to 185 °C
24 | CCCc1ccc(C=O)n1Cc1ccc(-c2ccccc2-c2nnn[nH]2)cc1 | 68 to 71 °C
25 | CCCOC(=O)N=P(c1ccccc1)(c1ccccc1)c1ccccc1 | 90 to 91 °C
26 | O=C(O)Cc1nc(-c2c(Cl)cccc2Cl)no1 | 124 to 126 °C
27 | O=C1Cc2ccc(N3C(=O)C4=C(CCCC4)C3=O)cc2N1 | 225 to 226 °C
28 | c1ccc(CSc2ccccc2C2=NOCCO2)cc1 | 73 to 77 °C
29 | CC12CCC3C(CCC4(O)CC(O)CCC34CO)C1(O)CCC2c1ccnnc1 (centres undefined) | 138 to 140 °C
30 | C=CC(=O)NC(CCC(=O)O)C(=O)O (centres undefined) | 125 to 127 °C
31 | CC1(C)CNS(=O)(=O)N1 | 80 to 83 °C
32 | CCCCOc1ncc(C(C)=O)cc1-c1nn2c(CC)nc(CCC)c2c(=O)[nH]1 | 155 to 156 °C
33 | N#CC1=C(C2CCCCC2=O)Nc2n[nH]cc2C1c1cccc2nonc12 (centres undefined) | > 270 °C
34 | Cn1nc(-c2cc([N+](=O)[O-])c(Cl)cc2Cl)cc1OC(F)F | 134 to 137 °C
35 | c1ccc2c(OC[C@H]3CCCN3c3ccnc4ncnn34)cccc2c1 | 74 to 75 °C
36 | CCOc1cc(N)c(Cl)cc1C(=O)NCC1CN(CC2CCN(C#N)CC2)CCO1 (centres undefined) | 197 °C
37 | COc1cc(N)c(Cl)cc1C(=O)NCCN1CCC2(CC1)C(=O)NCN2c1ccccc1 | 247 °C
38 | CC1CN(c2ncc(C(=O)N(c3cccc(C(F)(F)F)c3)C3CCCC3)c(N)n2)C(=O)N1 (centres undefined) | 219 to 220 °C
39 | O=c1c2c(Cl)cc(Cl)cc2n(Cc2ccccc2)c(=O)n1Cc1ccccc1F | 126 to 130 °C
40 | OC[C@H]1OC[C@@H](n2c(NC3CC3)nc3cc(Cl)c(Cl)cc32)C[C@@H]1O | 98 to 99 °C
41 | CN1CCC(OC2c3ccccc3CCn3c2nc(-c2ccc(Br)cc2)c3Cl)CC1 (centres undefined) | 169 °C
42 | CN1CC=C(c2c[nH]c3ccc([N+](=O)[O-])cc23)C(F)C1 (centres undefined) | 94 to 96 °C
43 | CCOC(=O)CCCN(C(=O)CCCN(C(=O)c1ccc(Cl)cc1)c1c(C)cccc1C)c1c(C)cccc1C | 95 to 97 °C
44 | CN1CCN(c2ccc(Nc3ncc4cc(C#N)c(=O)n(C5CCCC5)c4n3)cc2)CC1 | 290 to 292 °C

Now from value to molecule:

Row | melting point | SMILES
45 | 57 to 59 °C | CCCCCCCCCCCCCCCCCCOc1cc(NC(=O)OCc2ccccc2)cc(OC(C)=O)c1
46 | 130 to 131 °C | Cc1cn(C)cc(-c2cccc(C(F)(F)F)c2)c1=O
47 | 133 to 135 °C | COc1ccccc1-c1ccc(C(=O)N2Cc3cccn3Cc3ccccc32)cc1C
48 | 126 to 127 °C | O=C(O)CCCNc1cc(Oc2ccc(C(F)(F)F)cc2Cl)ccc1[N+](=O)[O-]
49 | 204 to 205 °C | Oc1ccc([C@H]2c3ccc(OCc4ccccc4)cc3OC[C@H]2c2ccccc2)cc1 (racemic)
50 | 120 to 122 °C | CCc1noc(-c2cn(-c3cccc(Oc4ccc(Cl)cc4)c3)cn2)n1
51 | 167 to 168 °C | COC(=O)C=Cc1ccc(OCc2nc(-c3ccccc3)oc2C)c(F)c1
52 | 199 °C | O=C1OC(=O)c2cc(Oc3ccc(-c4ccccc4)cc3)ccc21
53 | 119 to 121 °C | CCOC(=O)CC(=O)NNC(=O)c1cc2cccc(N(C)S(=O)(=O)c3cccs3)c2[nH]1
54 | 116 to 117 °C | CC(C)(C)OC(=O)NCCOc1noc2cccc(C#N)c12
55 | 85 °C | O=C(c1ccc(-n2ccc(CO)n2)cc1Cl)N1Cc2cccn2Cc2ccccc21
56 | 237 °C | O=C(Nc1ccc2ccc(Cl)nc2n1)C1=CSCCS1
57 | 229 to 232 °C | Cc1oc2c(NC(=O)c3c(Cl)ccc(Cl)c3C(N)=O)cccc2c1C
58 | 226 to 227 °C | COCCc1nc2c(N)nc3cc(-c4ccccc4)ccc3c2n1CC(C)(C)O
59 | 88 to 90 °C | COc1cc(COCCc2cccc(NS(=O)(=O)C(F)(F)F)c2)ccc1-c1ccc(Cl)cc1
60 | 122 to 124 °C | Cc1cc(C(C)N(O)C(=O)NCCO)c(C)s1 (centres undefined)
61 | 134 to 135 °C | COC(=O)c1ccc(I)nc1
62 | 125 °C | COC1(C)CC(C)(C)c2ccc(Oc3ccc([N+](=O)[O-])cc3)cc2O1 (centres undefined)
63 | 158 to 160 °C | Cc1nc(N2CCC(Cc3ccc(OC(F)(F)F)cc3)C2=O)sc1C(=O)NCc1cccnc1 (centres undefined)
64 | 72 to 74 °C | CCOC(=O)C1=C(N)C(NCC(O)COCc2cccc(CN3CCCCC3)c2)=NS1(=O)=O (centres undefined)
65 | 244 °C | O=C(Nc1ccc2ccc(Cl)nc2n1)c1cccs1
66 | 164 °C | O=C(O)C(=O)c1ccc(OCCOc2ccc3ccccc3c2)c([N+](=O)[O-])c1
67 | 218 °C | Nc1nccc(Oc2ccc3c(C(=O)Nc4cccc(C(F)(F)F)c4)cccc3c2)n1
68 | 171 to 172 °C | CCCn1nc(-c2ccc(O)cc2)c2cccc(-c3ccccc3)c21
69 | 217 to 219 °C | O=C(NCCc1ccnc(-c2nc(=O)c3ccccc3s2)c1)c1ccccc1
70 | 305 °C | CCOC(=O)c1ccc(-c2cc3c(NCc4ccc(OC)nc4)ncnc3[nH]2)cc1
71 | 150 to 151 °C | Nc1ccccc1Oc1ccccc1C(=O)O
72 | 191 to 193 °C | CC1COC(=O)N1c1cc(-c2ncnc(Nc3cccc(Cl)c3)n2)ccn1 (centres undefined)

Row | melting point | SMILES
73 | > 260 °C | CCOC(=O)c1cc(-c2csc(-c3ccnc(N)c3)n2)c(=O)[nH]c1C
74 | 133 to 135 °C | COC(=O)c1cc(O)cc(Cl)c1
75 | 160 °C | CC(=O)Oc1c(C(C)(C)C)cc2oc(C=O)cc2c1C(C)(C)C
76 | 288 °C | O=C(Nc1cc(=O)n(-c2c(Cl)cc(C(F)(F)F)cc2Cl)[nH]1)c1ccccc1
77 | 50 to 53 °C | CC(C)OCC(=O)NC1CCN(CC23CC(c4ccccc42)c2ccc(Cl)cc23)CC1 (centres undefined)
78 | 95 °C | CCOCc1cc2c(N)cccc2cn1
79 | 307 to 308 °C | Cc1cn(-c2nc(C)cc3[nH]c(=O)ccc23)cn1
80 | 148 to 150 °C | COc1cccc2c(Nc3ccc(C)c(O)c3)c(C#N)cnc12
81 | 198 to 199 °C | OCCCNc1cc(Nc2ccc(N3CCOCC3)cc2)ncn1
82 | 173 to 174 °C | CC(C)(C)OC(=O)NCc1ccc2cc(O)ccc2c1
83 | 108 to 110 °C | Cc1cc(Oc2ccccc2)c(NC(=O)OCc2ccccc2)c(=O)n1CC(=O)O
84 | 220 to 223 °C | O=C(NCCN1CCN=C1c1ccccn1)Nc1ccc(C(=O)O)cc1
85 | 126 to 129 °C | CC(N1CCC(Cc2ccccc2)CC1)C(O)(NC(=O)c1ccccc1)c1ccc(N)cc1 (centres undefined)
86 | 99 to 101 °C | CC(C)Nc1cccnc1N1CCN(C(=O)c2ccc(C(=O)N(CCO)Cc3ccccc3)cc2)CC1
87 | 205 to 208 °C | CC1(CC(=O)Nc2ccccc2)OCCc2c1[nH]c1ccccc21 (centres undefined)
88 | 81 °C | COC(=O)c1cccc(-c2noc(C)n2)c1
89 | 172 to 173 °C | CCNc1nc(Cl)cc(NS(=O)(=O)c2ccc(N)cc2)n1
90 | 181 to 182 °C | CC(O)C(=O)Nc1ccc(C2=NNC(=O)CC2C)cc1 (centres undefined)
91 | 174 to 175 °C | Cc1nn(-c2ccc(F)cc2)c(C)c1C(=O)Nc1ccc(OCC(C)(C)C)c(C#N)c1
92 | 115 to 117 °C | CCOC(=O)C=CC(=O)c1ccc(Oc2ccc(Cl)c(Cl)c2)cc1
93 | > 250 °C | O=C(Oc1ccccc1)N1CCc2[nH]c3c(cnc4cc(Cl)ccc43)c2C1
94 | 141 to 142 °C | Cc1c2c(c(C(O)c3ccc(C(C)C)cc3)c(C)c1NC(=O)OC(C)(C)C)OC(C)C2 (centres undefined)
95 | 169 to 170 °C | CCc1cc(=O)c(C(=O)c2ccccc2)c(C)[nH]1
96 | 174 to 175 °C | COCC(=O)N1c2ccc(N3C[C@H](CNC(C)=O)OC3=O)cc2C[C@H]1C
97 | 74 °C | COC(=O)c1cccnc1C(=O)c1ccccc1
98 | 173 to 175 °C | CCCc1ccc2nc(COc3ccc(F)c(C(N)=O)c3F)sc2c1
99 | 257 °C | CCCCOc1ccc(S(=O)(=O)C2(C(=O)O)CCN(Cc3ccc(Cl)c(Cl)c3)CC2)cc1
